Results taken from paper PMC4286469 (Cancer research, 2014).
Where a SMILES comes first, the peptide text is derived from it. The star is where a group is joined. Cbz = O=C(OCc1ccccc1)*; CH2F = FC*

Legend:
[1] = system: B16F0 tumors; assay: B16F0 tumors in immunodeficient NSG mice; type: in vivo; settings: Fig. 4I
[2] = system: SK-Mel5 melanoma cells; assay: Viability/cytotoxicity of SK-Mel5 melanoma cells; type: cell-based, human; settings: for viability of melanoma cells under continuous exposure: p53^WT SK-Mel5, (−)-Nutlin-3 10µM, MLN8237 1µM, 7 days, Fig. 1D, E
[3] = system: p53; assay: p53 and p53 target levels in cultured p53^WT melanoma cells; type: cell-based, human; settings: for accumulation of p53 and its transcriptional targets: p53^WT cells (SK-Mel5 and Hs294T), (−)-Nutlin-3 10µM, MLN8237 1µM, 5 days
[4] = system: SK-Mel5 xenografts; assay: Marker analysis of SK-Mel5 xenograft tumors; type: in vivo, BALB/C nu/Foxn1 athymic nude mice; settings: for p53 induction/activation in tumors (Western blot): (−)-Nutlin-3 200mg/kg
[5] = system: B16F0 tumors; assay: B16F0 tumors in syngeneic immunocompetent C57Bl/6 mice; type: in vivo
[6] = in vivo; settings: C57Bl6, mouse, po, 30 mg/kg
[7] = mouse, in vivo, po, 30 mg/kg
[8] = system: patient-derived metastatic melanoma tumors; settings: independent of BRAF and NRAS mutational status; ref [7]; cited from earlier work
[9] = system: non-resectable melanoma tumors driven by BRAF^V600E; settings: patients; ref [1]–[5]; cited from earlier work
[10] = system: SK-Mel5 cells; type: cell-based, human
[11] = system: p53; assay: p53 level and activity in p53^MUT SK-Mel28 cells; type: cell-based, human
[12] = system: cells with p53 knockout; assay: Viability of cells with p53 knockout; type: cell-based; settings: Fig. S2A
[13] = Plasma and tumor pharmacokinetics in B16F0 melanoma-bearing C57Bl6 mice; settings: 200 mg/kg oral

## COc1cc(Nc2ncc3c(n2)-c2ccc(Cl)cc2C(c2c(F)cccc2OC)=NC3)ccc1C(=O)O [MLN8237]
[1]
  clearance of necrotic areas in senescent tumors: abrogated
[2]
  viability of melanoma cells under continuous exposure: mostly cytostatic response
[3]
  accumulation of p53 and its transcriptional targets: induced p53 accumulation
[4]; MLN8237 30mg/kg daily
  p53 induction/activation in tumors (Western blot): moderate induction of p53
  AURKA activity (auto-phosphorylation) in tumor lysates: inhibited AURKA activity
  tumor senescence (SA-β-Gal activity) and proliferation markers: inhibition of cancer cell proliferation and induction of senescence
[5]; (−)-Nutlin-3 200mg/kg twice daily, MLN8237 30mg/kg once a day, oral gavage
  tumor growth: partially inhibited tumor growth
[5]; Fig. 5B
  CCL5 levels in melanoma cells and fibroblasts sorted from tumors (qRT-PCR): increased
[5]; immunocompetent mice, Fig. 4G
  tumor necrosis (H&E): striking absence of necrosis
[6]
  AUC(0-t): 42.7 µg·h/mL
[7]
  overall median MLN8237 AUC0–24hr, tumor tissue: 37.4 µg·h/g
[8]
  patient-derived metastatic melanoma tumors with markedly slowed growth: > 75%

## CC(C)(C)c1nc(-c2cccc(NS(=O)(=O)c3c(F)cccc3F)c2F)c(-c2ccnc(N)n2)s1 [dabrafenib]
[9]
  median progression-free survival: 6 months

## COC(=O)C[C@H](NC(=O)[C@H](C)NC(=O)[C@@H](NC(=O)OCc1ccccc1)C(C)C)C(=O)CF [pan-caspase inhibitor, Z-VAD-FMK] (Cbz-Val-Ala-Asp(OMe)-CH2F)
[10]
  effect of pan-caspase inhibitor on cytotoxic response to p53 activation: did not interfere

## (−)-Nutlin-3
[11]
  level and activity of p53: unaffected
[2]; SK-Mel5, senescent (1 µM MLN8237 pre-treated) and non-senescent (vehicle pre-treated) cells, Fig. 1A, B
  cytotoxicity in senescent and non-senescent cells: dose-dependent cytotoxicity
[2]
  viability of melanoma cells under continuous exposure: killed p53^WT melanoma cells
[3]; in vitro, Fig. S2B
  cells showing strong p53 induction in vitro: 100%
[3]
  accumulation of p53 and its transcriptional targets: induced accumulation of p53 and its transcriptional targets p21, PUMA, BAX and MDM2
[12]
  viability of cells with p53 knockout: did not affect viability
[13]; plasma
  median (−)-Nutlin-3 AUC0–24hr, plasma: 292.7 µg·h/mL
[13]; tumor tissue
  median (−)-Nutlin-3 AUC0–24hr, tumor tissue: 455.6 µg·h/mL
[4]; MLN8237 30mg/kg daily
  p53 induction/activation in tumors (Western blot): modest
[4]; Fig. 3C
  tumor cells showing induction of apoptosis marker AIF: no more than 15%
[4]; Fig. S3, untreated control tumors 3–6%
  tumor cells with elevated/strong p53 staining: 11%
[10]; (−)-Nutlin-3 10µM, MLN8237 1µM, 5 days
  mitochondrial membrane potential (JC-1): decrease in mitochondrial membrane potential
[10]; Fig. S2C
  cleavage of caspase 3: not detected
[10]; SK-Mel5, IF staining
  Apoptosis Inducing Factor (AIF) activation and translocation: induced activation, mitochondrial release and nuclear translocation
[10]; p53^WT melanoma cells, 10µM, 5 days
  apoptosis (Annexin V-FITC and PI staining): induced apoptosis
[5]; IF staining, Fig. 4D
  p53 levels in tumors: not strongly induced
